Data on two compounds can be found in US20130034509A1, “COSMETIC TREATMENT METHOD INVOLVING A COMPOUND CAPABLE OF CONDENSING IN SITU” (L'OREAL, priority 2009, published 2013).

For data set [1] the following is noted: dispersion contacted on a film of APTES.
A short description of data set [2]: Insolubility of the deposit in water in the Petri dish (Example 3). The note with it: general statement in the description.

With Zinc Pyrithione, in data set [1], the “flocculation of the dispersion” value is on record as “almost immediate flocculation”. Turning to `CCO[Si](CCCN)(OCC)OCC` [APTES, γ-aminopropyl triethoxysilane], the “water solubility of the material resulting from condensation” value in data set [2] was “high water solubility”.
